Tested on: CIA transgenic TNF-luc mice
Assay: collagen type II-induced arthritis in transgenic TNF-luc mice (swelling, scores, weight)
Type: in vivo, BALB/c transgenic TNF-luc mice
Parameters: key to joint index score / arthritis index score: 0–4 per paw, four paws summed, max 16
Conditions: Adalimumab 8 mg/kg, mPEG-SC20k-HM-3 20 mg/kg; for right ankle swelling changes: CIA TNF-luc mice; for clinical score (Table 32, kg) / arthritis index score / clinical score: CIA chronic model
Procedure: 8 animals are randomly divided into 4 groups (n=2), a normal group, a model group, a positive drug group and a test group. On day 0, for the primary immunization, mice are hypodermically injected with 50 μL collagen emulsifier (containing CII 100 μg/ mouse) at the tail root of mice for sensitization. On day 0, initial ankle widths, initial foot palm widths and initial toe thicknesses of left and right feet of mice in each group are measured separately.
After day 21, the same dosage of emulsifier is used for second immunization at the tail root. After the symptoms such as redness and swelling of joints appear on the four toes of mice, continuous administration is performed for 15 days. The normal group and the model group are separately hypodermically injected with 0.9% normal saline (0.2 mL/20 g of body weight), once every 2 days, 7 times in total. The positive drug Adalimumab group is hypodermically injected with Adalimumab (8 mg/kg of body weight), once every 15 days, once in total. The test treatment group is hypodermically injected with mPEG-SC20k-HM-3 (20 mg/kg of body weight), once every 2 days, 7 times in total.
Every 2 days, the thickness of the ankle, the width of the foot palm and the thickness of the toes of each group of mice are measured with a vernier caliper.
Swelling degree of left ankle (cm)=swelling thickness of left ankle on day n of the experiment−measured initial thickness of left ankle.
Swelling degree of right ankle (cm)=swelling thickness of right ankle on day n of the experiment−measured initial thickness of right ankle.
The joints of the mouse paw are observed with naked eyes, and the joints are scored every 2 days from day 30. Scoring is performed in terms of level 0 to level 4, 5 levels in total. 0=no erythema or swelling; 1=slight erythema or swelling, with erythema or swelling on one of the front/hind toe joints; 2=erythema or swelling on more than one toe; 3=swelling of paw beneath the ankle or wrist joint; 4=swelling of all paws including the ankle joint. Four paws of the mice are scored separately, and the highest score is 16 points.
After the secondary inflammation appears, systemic scoring is performed every 2 days, and the scoring standards are as follows:
Hind foot: no swelling=0 point, swelling of one hind foot=1 point, swelling of two hind feet=2 points.
Front foot: no swelling=0, swelling of one front foot=1 point, swelling of two front feet=2 points.
Ears: no redness symptoms and nodules=0 point, redness symptoms or nodules of one ear=1 point, red symptoms and nodules of two ears=2 points.
Nose: no swelling=0 point, obvious swelling=1 point.
Tail: no nodule=0 point, nodules=1 point; the highest score is 8 points.

Adalimumab [reference compound] was tested, and the left ankle swelling (0 d) was 0.000 ± 0.000 cm, the “right ankle swelling changes” value (0 d, mean ± SD) was 0.000 ± 0.000 cm and the “clinical score (Table 32, kg)” value (0 d, mean ± SD) was 0.000 ± 0.000. For the same substance, the left ankle swelling (12 d) was 0.006 ± 0.050 cm, the “right ankle swelling changes” value (12 d, mean ± SD) was 0.010 ± 0.014 cm and the “clinical score (Table 32, kg)” value (12 d, mean ± SD) was 1.050 ± 0.778. For the same substance, the left ankle swelling (15 d) was 0.011 ± 0.072 cm, the “right ankle swelling changes” value (15 d, mean ± SD) was 0.000 ± 0.028 cm and the “clinical score (Table 32, kg)” value (15 d, mean ± SD) was 0.940 ± 1.047. For the same substance, the left ankle swelling (18 d) was 0.021 ± 0.058 cm, the “right ankle swelling changes” value (18 d, mean ± SD) was 0.012 ± 0.011 cm and the “clinical score (Table 32, kg)” value (18 d, mean ± SD) was 0.455 ± 0.247. The left ankle swelling (21 d) was 0.001 ± 0.041 cm, the “right ankle swelling changes” value (21 d, mean ± SD) was 0.007 ± 0.010 cm and the “clinical score (Table 32, kg)” value (21 d, mean ± SD) was 0.230 ± 0.523. The left ankle swelling (24 d) was 0.016 ± 0.048 cm, the “right ankle swelling changes” value (24 d, mean ± SD) was 0.009 ± 0.007 cm and the “clinical score (Table 32, kg)” value (24 d, mean ± SD) was 0.550 ± 0.212. The left ankle swelling (27 d) was 0.007 ± 0.049 cm, the “right ankle swelling changes” value (27 d, mean ± SD) was 0.012 ± 0.017 cm and the “clinical score (Table 32, kg)” value (27 d, mean) was 1.295. For the same substance, the left ankle swelling (30 d) was 0.012 cm, the “right ankle swelling changes” value (30 d, mean ± SD) was 0.008 ± 0.008 cm and the “clinical score (Table 32, kg)” value (30 d, mean) was 0.975. The arthritis index score (30 d, mean ± SD) was 5.00 ± 2.83, the clinical score (30 d, mean ± SD) was 5.00 ± 1.41 and the left ankle swelling (33 d) was 0.011 ± 0.041 cm. The “right ankle swelling changes” value (33 d, mean ± SD) was 0.011 ± 0.016 cm, the arthritis index score (33 d, mean ± SD) was 8.00 ± 0.00 and the clinical score (33 d, mean ± SD) was 5.00 ± 0.00. For the same substance, the “clinical score (Table 32, kg)” value (33 d, mean ± SD) was 1.295 ± 0.177, the left ankle swelling (36 d) was 0.012 ± 0.042 cm and the “right ankle swelling changes” value (36 d, mean ± SD) was 0.017 ± 0.007 cm. The arthritis index score (36 d, mean ± SD) was 8.50 ± 0.71, the clinical score (36 d, mean ± SD) was 5.00 ± 0.00 and the “clinical score (Table 32, kg)” value (36 d, mean ± SD) was 2.200 ± 0.707. For the same substance, the left ankle swelling (39 d) was 0.002 ± 0.031 cm, the “right ankle swelling changes” value (39 d, mean ± SD) was 0.007 ± 0.010 cm and the arthritis index score (39 d, mean ± SD) was 6.50 ± 0.71. The clinical score (39 d, mean ± SD) was 5.00 ± 0.00, the “clinical score (Table 32, kg)” value (39 d, mean ± SD) was 2.187 ± 0.443 and the left ankle swelling (42 d) was 0.003 ± 0.052 cm. The “right ankle swelling changes” value (42 d, mean ± SD) was 0.012 ± 0.017 cm, the arthritis index score (42 d, mean ± SD) was 5.50 ± 0.71 and the clinical score (42 d, mean ± SD) was 5.00 ± 0.00. The “clinical score (Table 32, kg)” value (42 d, mean ± SD) was 2.655 ± 1.082, the left ankle swelling (45 d) was 0.006 ± 0.051 cm and the “right ankle swelling changes” value (45 d, mean ± SD) was 0.005 ± 0.021 cm. The arthritis index score (45 d, mean ± SD) was 5.00 ± 0.00, the clinical score (45 d, mean ± SD) was 4.00 ± 0.00 and the “clinical score (Table 32, kg)” value (45 d, mean ± SD) was 3.085 ± 1.478. For the same substance, the left ankle swelling (48 d) was 0.007 ± 0.047 cm, the “right ankle swelling changes” value (48 d, mean ± SD) was 0.006 ± 0.006 cm and the “clinical score (Table 32, kg)” value (48 d, mean) was 3.415. For the same substance, the arthritis index score (48 d, mean ± SD) was 5.00 ± 1.41, the clinical score (48 d, mean ± SD) was 5.00 ± 0.00 and the left ankle swelling (51 d) was 0.001 cm. For the same substance, the “right ankle swelling changes” value (51 d, mean ± SD) was 0.004 ± 0.006 cm, the “clinical score (Table 32, kg)” value (51 d, mean) was 3.835 and the arthritis index score (51 d, mean ± SD) was 4.50 ± 0.71. It also gave a clinical score (51 d, mean ± SD) of 4.50 ± 0.71.

— patent US20220202912A1, “Polypeptides in Preparation of Drugs for Treatment or Prevention of Rheumatoid Arthritis” (priority 2011, published 2022)
